Measured values reported in the supplement of paper PMC11208160.

Assay: recombinant barcode read abundance after kanamycin selection (control-corrected) (log10(CPM+1)); higher = more efficient recombination; sequences stand for … in AGTGCAGAGAAAATCGGCCAGTTTTCTCTGCCTGCAGTCCGCATGCCGT…AGATTTATGCAGCGGACTGCCTTTCTCCCAAAGTGATAAACCGGACAGTATCATGGACCGGTTTTCCCGGTAATCCGTATTTGCAAGGTTGGTTTCACT; site = the 11-nt target
Procedure, shortened: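 IS621 bridge RNA target-binding loops were paired with targets in a pooled library tested in E. coli. After co-electroporation with a donor plasmid, cells were plated in two replicates on chloramphenicol/ampicillin LB agar (control) and on chloramphenicol/ampicillin/kanamycin carrying 0.1 mM IPTG. Barcodes at recombinant junctions were counted as counts per million, averaged and control-corrected to give recombination efficiency. Values are log10(CPM+1).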
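Also: IS621 recombinase and bridge RNA in Escherichia coli cells.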

Sequence | recombinant barcode read abundance (log10)
CTAGGCCCTTGGGTTCTAACCTGTTGCTT (site CTAGGCCCTAG) | 0.229
CTAGGCCCTTGGGTTCTAACCTGTTGCTT (site CTAGGCCCTAT) | 0.939
CTAGTACCTTGGGTTCTAACCTGTTGCCT (site CTAGTACCTAG) | 1.43
CTAGTACCTTGGGTTCTAACCTGTTGCCT (site TTAGTAACTAG) | 0.0602
CTAGTAGCTTGGGTTCTAACCTGTTGCGG (site CTAGTAGCTAC) | 0.553
CTAGTAGCTTGGGTTCTAACCTGTTGCGG (site CTAGTAGCTCC) | 1.56
CTAGTCCCTTGGGTTCTAACCTGTTGCCG (site CTAGTCCCTCG) | 1.79
CTAGTCCCTTGGGTTCTAACCTGTTGCCG (site TTAGTCCCTCG) | 0.176
CTAGTGGCTTGGGTTCTAACCTGTTGCCG (site CTAGTGGCTCG) | 1.3
CTAGTGGCTTGGGTTCTAACCTGTTGCCG (site TCGTCACCTAT) | 0.0446
CTATAGACTTGGGTTCTAACCTGTTGCCT (site CTATAGACTAG) | 1.11
CTATAGACTTGGGTTCTAACCTGTTGCCT (site CTATCGACTAG) | 0.163
CTATAGACTTGGGTTCTAACCTGTTGCCT (site CTATGGACTAG) | 0.475
CTATAGACTTGGGTTCTAACCTGTTGCCT (site CTATTGACTAG) | 0.317
CTATCCACTTGGGTTCTAACCTGTTGCCT (site CTATCCACTAG) | 1.63
CTATCCACTTGGGTTCTAACCTGTTGCCT (site CTGTCGACTAG) | 0.873
CTATGACCTTGGGTTCTAACCTGTTGCCT (site CTATGACCTAA) | 0.124
CTATGACCTTGGGTTCTAACCTGTTGCCT (site CTATGACCTAC) | 0.23
CTATGACCTTGGGTTCTAACCTGTTGCCT (site CTATGACCTAG) | 1.9
CTATGACCTTGGGTTCTAACCTGTTGCCT (site CTATGACCTAT) | 0.104
CTATGTGCTTGGGTTCTAACCTGTTGCTT (site CTATGTGCTAA) | 0.337
CTATGTGCTTGGGTTCTAACCTGTTGCTT (site CTATGTGCTAC) | 0.37

Sequence | recombinant barcode read abundance (log10)
CTATGTGCTTGGGTTCTAACCTGTTGCTT (site CTATGTGCTAG) | 1.1
CTATGTGCTTGGGTTCTAACCTGTTGCTT (site CTATGTGCTAT) | 0.746
CTATTAACTTGGGTTCTAACCTGTTGCTA (site ACTCACCCTCC) | 0.00656
CTATTAACTTGGGTTCTAACCTGTTGCTA (site CTATTAACTTA) | 0.328
CTATTCCCTTGGGTTCTAACCTGTTGCTG (site CTATTCCCTCA) | 1.99
CTATTCCCTTGGGTTCTAACCTGTTGCTG (site CTCTTCCCTAA) | 0.185
CTATTCGCTTGGGTTCTAACCTGTTGCCT (site CTATTCACTAG) | 0.295
CTATTCGCTTGGGTTCTAACCTGTTGCCT (site CTATTCCCTAG) | 0.0147
CTATTCGCTTGGGTTCTAACCTGTTGCCT (site CTATTCGCTAG) | 1.49
CTATTCGCTTGGGTTCTAACCTGTTGCCT (site CTATTCTCTAG) | 0.218
CTATTGACTTGGGTTCTAACCTGTTGCCT (site CTATAGACTAG) | 0.0514
CTATTGACTTGGGTTCTAACCTGTTGCCT (site CTATCGACTAG) | 0.246
CTATTGACTTGGGTTCTAACCTGTTGCCT (site CTATGGACTAG) | 0.11
CTATTGACTTGGGTTCTAACCTGTTGCCT (site CTATTGACTAG) | 1.42
CTATTGTCTTGGGTTCTAACCTGTTGCGC (site CTATTGTCTAC) | 0.06
CTATTGTCTTGGGTTCTAACCTGTTGCGC (site CTATTGTCTCC) | 0.0404
CTATTGTCTTGGGTTCTAACCTGTTGCGC (site CTATTGTCTGC) | 2.77
CTATTGTCTTGGGTTCTAACCTGTTGCGC (site CTATTGTCTTC) | 0.909
CTATTTACTTGGGTTCTAACCTGTTGCCT (site CTAATTACTAG) | 0.0674
CTATTTACTTGGGTTCTAACCTGTTGCCT (site CTACTTACTAG) | 0.302
CTATTTACTTGGGTTCTAACCTGTTGCCT (site CTAGTTACTAG) | 0.19
CTATTTACTTGGGTTCTAACCTGTTGCCT (site CTATTTACTAG) | 0.411

Sequence | recombinant barcode read abundance (log10)
CTCAATTCTTGGGTTCTAACCTGTTGCAA (site CTCAATACTTC) | 0.0332
CTCAATTCTTGGGTTCTAACCTGTTGCAA (site CTCAATTCTTT) | 0.0558
CTCAATTCTTGGGTTCTAACCTGTTGCAT (site CTCAATTCTAT) | 0.812
CTCAATTCTTGGGTTCTAACCTGTTGCAT (site CTCCATTCTAT) | 0.0304
CTCAATTCTTGGGTTCTAACCTGTTGCAT (site CTCGATTCTAT) | 0.27
CTCAATTCTTGGGTTCTAACCTGTTGCAT (site CTCTATTCTAT) | 0.148
CTCATAACTTGGGTTCTAACCTGTTGCCG (site CTCATAACTCG) | 0.328
CTCATAACTTGGGTTCTAACCTGTTGCCG (site CTCTAAACTCG) | 0.2
CTCATATCTTGGGTTCTAACCTGTTGCTT (site CTCATATCTAA) | 1.18
CTCATATCTTGGGTTCTAACCTGTTGCTT (site GAATGGACTTC) | 0.0724
CTCCAACCTTGGGTTCTAACCTGTTGCCT (site CGCCCACCTAG) | 0.144
CTCCAACCTTGGGTTCTAACCTGTTGCCT (site CTCCAACCTAG) | 1.54
CTCCAACCTTGGGTTCTAACCTGTTGCGG (site CTCCAACCTCC) | 2.14
CTCCAACCTTGGGTTCTAACCTGTTGCGG (site CTCCAGCCTCC) | 0.461
CTCCATACTTGGGTTCTAACCTGTTGCCT (site CTCCATACTAG) | 0.814
CTCCATACTTGGGTTCTAACCTGTTGCCT (site CTCCATCCTAG) | 0.0983
CTCCATACTTGGGTTCTAACCTGTTGCCT (site CTCCATGCTAG) | 0.23
CTCCATACTTGGGTTCTAACCTGTTGCCT (site CTCCATTCTAG) | 0.0874
CTCCGAACTTGGGTTCTAACCTGTTGCAG (site CTCCGAACTCT) | 1.12
CTCCGAACTTGGGTTCTAACCTGTTGCAG (site TCATATCCTAG) | 0.174
CTCCGGACTTGGGTTCTAACCTGTTGCCT (site CTCCGGACTAG) | 2.02
CTCCGGACTTGGGTTCTAACCTGTTGCCT (site CTCCGTACTAG) | 0.276

Sequence | recombinant barcode read abundance (log10)
CTCCGTACTTGGGTTCTAACCTGTTGCCT (site CTCCGGACTAG) | 0.0835
CTCCGTACTTGGGTTCTAACCTGTTGCCT (site CTCCGTACTAG) | 0.858
CTCCTAGCTTGGGTTCTAACCTGTTGCTT (site CTCCGAGCTTA) | 0.00954
CTCCTAGCTTGGGTTCTAACCTGTTGCTT (site CTCCTAGCTAA) | 0.277
CTCCTCCCTTGGGTTCTAACCTGTTGCCT (site CTCCTCCCTAG) | 1.29
CTCCTCCCTTGGGTTCTAACCTGTTGCCT (site CTCCTCTCTAG) | 0.275
CTCCTCTCTTGGGTTCTAACCTGTTGCAT (site AAGTGAGCTTG) | 0.0369
CTCCTCTCTTGGGTTCTAACCTGTTGCAT (site CTCCTCTCTAT) | 2.03
CTCGAACCTTGGGTTCTAACCTGTTGCTG (site CTCGAACCTCA) | 1.93
CTCGAACCTTGGGTTCTAACCTGTTGCTG (site CTCGAATCTTA) | 0.077
CTCGGAACTTGGGTTCTAACCTGTTGCCT (site CTCGGAACTAG) | 0.374
CTCGGAACTTGGGTTCTAACCTGTTGCCT (site CTCGGACCTAG) | 0.257
CTCGGAACTTGGGTTCTAACCTGTTGCCT (site CTCGGAGCTAG) | 0.325
CTCGGAACTTGGGTTCTAACCTGTTGCCT (site CTCGGATCTAG) | 0.366
CTCGGACCTTGGGTTCTAACCTGTTGCCT (site CTCGGAACTAG) | 0.209
CTCGGACCTTGGGTTCTAACCTGTTGCCT (site CTCGGACCTAG) | 2.42
CTCGGACCTTGGGTTCTAACCTGTTGCCT (site CTCGGAGCTAG) | 0.147
CTCGGACCTTGGGTTCTAACCTGTTGCCT (site CTCGGATCTAG) | 0.263
CTCGGATCTTGGGTTCTAACCTGTTGCCT (site CTCGGAACTAG) | 0.0461
CTCGGATCTTGGGTTCTAACCTGTTGCCT (site CTCGGACCTAG) | 0.391
